How the values were obtained:
Assay in all cases: relative viability (nuclei count vs DMSO), 5 days (fraction); higher = more cells survive
Obatoclax + Dasatinib = compound: COC1=CC(c2cc3ccccc3[nH]2)=N/C1=C\c1[nH]c(C)cc1C [Obatoclax] + Cc1nc(Nc2ncc(C(=O)Nc3c(C)cccc3Cl)s2)cc(N2CCN(CCO)CC2)n1 [Dasatinib] (partner 0.075 µM)
Procedure, shortened: (§1)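 Relative viability was taken as the ratio of nuclei in treated wells to nuclei in vehicle wells. Lung cancer cell lines in 1536-well plates received compounds by pin tool one day after seeding, either one drug alone or a fixed anchor-drug dose plus five library-drug doses (not always all listed) in √10 steps. Nuclei were counted on 4× images after 5 days of treatment, and values are medians of duplicate plates.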

Bortezomib + Pemetrexed = compound: CC(C)C[C@H](NC(=O)[C@H](Cc1ccccc1)NC(=O)c1cnccn1)B(O)O [Bortezomib] + Nc1nc2[nH]cc(CCc3ccc(C(=O)N[C@@H](CCC(=O)O)C(=O)O)cc3)c2c(=O)[nH]1 [Pemetrexed] (partner 0.2 µM)
Procedure, shortened: as §1

[1] = compound: CC1=CC(=NN1)NC2=CC(=NC(=N2)/C=C/C3=CC=CC=C3)N4CCN(CC4)C + Nc1nc2[nH]cc(CCc3ccc(C(=O)N[C@@H](CCC(=O)O)C(=O)O)cc3)c2c(=O)[nH]1 [Pemetrexed] (partner 0.2 µM)
Procedure, shortened: as §1

[2] = compound: CC1=CC(=NN1)NC2=CC(=NC(=N2)/C=C/C3=CC=CC=C3)N4CCN(CC4)C + Cc1cc(Nc2cc(N3CCN(C)CC3)nc(Sc3ccc(NC(=O)C4CC4)cc3)n2)n[nH]1 [Tozasertib] (partner 0.1 µM)
Procedure, shortened: as §1

Cell Line	relative viability (Obatoclax + Dasatinib; first compound 0.01 µM)	relative viability (Obatoclax + Dasatinib; first compound 0.03162 µM)	relative viability (Obatoclax + Dasatinib; first compound 0.1 µM)	relative viability (Obatoclax + Dasatinib; first compound 0.3162 µM)	relative viability (Obatoclax + Dasatinib; first compound 1 µM)	relative viability (Bortezomib + Pemetrexed; first compound 0.0002 µM)	relative viability (Bortezomib + Pemetrexed; first compound 0.000632 µM)	relative viability (Bortezomib + Pemetrexed; first compound 0.002 µM)	relative viability (Bortezomib + Pemetrexed; first compound 0.006325 µM)	relative viability (Bortezomib + Pemetrexed; first compound 0.02 µM)	relative viability ([1]; first compound 0.08 µM)	relative viability ([1]; first compound 0.253 µM)	relative viability ([1]; first compound 0.8 µM)	relative viability ([1]; first compound 2.53 µM)	relative viability ([1]; first compound 8 µM)	relative viability ([2]; first compound 0.08 µM)	relative viability ([2]; first compound 0.253 µM)	relative viability ([2]; first compound 0.8 µM)	relative viability ([2]; first compound 2.53 µM)	relative viability ([2]; first compound 8 µM)
201T	0.599	0.412	0.588	0.569	0.6	0.338	0.327	0.321	0.353	0.308	0.31	0.318	0.376	0.327	0.298	0.973	0.916	0.746	0.388	0.25
A-427	0.719	0.687	0.462	0.6	0.271	0.914	0.971	0.968	0.235	0.182	1.06	1.1	0.97	0.51	0.202	0.212	0.136	0.178	0.0979	0.0938
ABC-1	0.498	0.55	0.369	0.551	0.375	–	–	–	–	–	–	–	–	–	–	0.191	0.164	0.191	0.207	0.182
BEN	0.321	0.312	–	0.41	0.272	0.75	0.806	0.88	0.529	0.373	0.723	0.809	0.699	0.476	0.323	0.492	0.533	0.451	0.364	0.38
CAL-12T	0.419	0.414	0.426	0.0751	0.0688	1.25	1.26	1.24	1.15	0.123	1.09	1.25	1.16	0.56	0.159	0.25	0.303	0.251	0.172	0.143
COR-L23	0.494	0.488	0.416	0.285	0.163	0.186	0.196	0.201	0.0763	0.0792	0.202	0.203	0.179	0.166	0.105	0.163	0.182	0.148	0.1	0.0908
COR-L 105	0.4	0.358	0.372	0.265	0.246	1.03	1.12	1.13	0.494	0.303	1.23	1.13	0.945	0.351	0.29	0.372	0.304	0.348	0.248	0.246
ChaGo-K-1	0.637	0.582	0.502	0.584	0.644	0.265	0.238	0.249	0.267	0.192	0.259	0.264	0.27	0.227	0.17	0.222	0.227	0.217	0.195	0.172
EKVX	0.567	0.491	0.539	0.594	0.522	0.373	0.417	0.482	0.216	0.102	0.366	0.5	0.674	0.361	0.197	0.396	0.451	0.383	0.196	0.104
EMC-BAC-2	0.357	0.325	0.255	0.264	0.284	0.415	0.44	0.443	0.326	0.266	0.439	0.495	0.445	0.465	0.234	0.282	0.249	0.254	0.234	0.149
EPLC-272H	0.36	0.31	0.342	0.264	0.147	0.354	0.308	0.157	0.085	0.0797	0.329	0.363	0.342	0.104	0.136	0.34	0.203	0.273	0.113	0.122
H3255	0.301	0.323	0.422	0.348	0.302	0.6	0.603	0.479	0.378	0.344	0.526	0.589	0.573	0.555	0.391	0.79	0.71	0.374	0.513	0.297
HARA	0.226	0.233	0.335	0.358	0.255	0.221	0.178	0.228	0.157	0.13	0.234	0.252	0.252	0.165	0.175	0.111	0.108	0.11	0.0787	0.0585
HCC-15	0.574	0.589	0.533	0.626	0.368	0.213	0.199	0.215	0.13	0.1	0.244	0.22	0.225	0.192	0.113	0.291	0.355	0.18	0.0787	0.0703
HCC-44	–	–	–	–	–	0.674	0.723	0.615	0.631	0.256	0.642	0.644	0.631	0.622	0.557	0.83	1.05	0.67	0.268	0.146
HCC-78	0.48	0.406	0.419	0.324	0.418	0.786	0.89	0.932	0.887	0.902	0.804	0.91	0.926	0.938	0.874	0.365	0.427	0.352	0.304	0.253
HCC-366	0.667	0.574	0.39	0.574	0.533	0.149	0.173	0.207	0.149	0.0543	0.171	0.189	0.187	0.0462	0.0222	0.0833	0.0907	0.0487	0.032	0.0245

Cell Line	relative viability (Obatoclax + Dasatinib; first compound 0.01 µM)	relative viability (Obatoclax + Dasatinib; first compound 0.03162 µM)	relative viability (Obatoclax + Dasatinib; first compound 0.1 µM)	relative viability (Obatoclax + Dasatinib; first compound 0.3162 µM)	relative viability (Obatoclax + Dasatinib; first compound 1 µM)	relative viability (Bortezomib + Pemetrexed; first compound 0.0002 µM)	relative viability (Bortezomib + Pemetrexed; first compound 0.000632 µM)	relative viability (Bortezomib + Pemetrexed; first compound 0.002 µM)	relative viability (Bortezomib + Pemetrexed; first compound 0.006325 µM)	relative viability (Bortezomib + Pemetrexed; first compound 0.02 µM)	relative viability ([1]; first compound 0.08 µM)	relative viability ([1]; first compound 0.253 µM)	relative viability ([1]; first compound 0.8 µM)	relative viability ([1]; first compound 2.53 µM)	relative viability ([1]; first compound 8 µM)	relative viability ([2]; first compound 0.08 µM)	relative viability ([2]; first compound 0.253 µM)	relative viability ([2]; first compound 0.8 µM)	relative viability ([2]; first compound 2.53 µM)	relative viability ([2]; first compound 8 µM)
HCC-827	0.451	0.292	0.417	0.407	0.388	0.265	0.254	0.219	0.234	0.247	0.159	0.241	0.262	0.266	0.171	0.404	0.375	0.422	0.355	0.236
HOP-62	0.718	0.64	0.439	0.787	0.534	0.257	0.321	0.445	0.223	0.0603	0.364	0.328	0.288	0.294	0.182	0.354	0.366	0.377	0.261	0.18
LC-2-ad	0.696	0.504	0.507	0.394	0.463	0.255	0.271	0.255	0.252	0.185	0.263	0.266	0.269	0.187	0.143	0.45	0.409	0.358	0.224	0.204
LCLC-97TM1	0.928	0.746	0.916	0.842	0.682	0.189	0.17	0.16	0.166	0.0769	0.186	0.226	0.161	0.164	0.0709	0.235	0.132	0.23	0.145	0.126
LCLC-103H	0.458	0.464	0.411	0.517	0.53	0.46	0.483	0.47	0.559	0.317	0.476	0.465	0.458	0.516	0.359	0.451	0.484	0.389	0.232	0.191
LK-2	0.329	0.263	0.394	0.375	0.229	0.285	0.324	0.221	0.365	0.28	0.199	0.288	0.306	0.217	0.0825	0.187	0.153	0.165	0.171	0.171
LOU-NH91	0.557	0.511	0.379	0.486	0.51	0.396	0.446	0.361	0.281	0.284	0.383	0.389	0.391	0.394	0.361	0.713	0.719	0.707	0.482	0.308
LU99A	0.471	0.568	0.575	0.434	0.261	0.158	0.167	0.198	0.174	0.169	0.187	0.2	0.199	0.202	0.173	0.325	0.259	0.262	0.175	0.141
LXF-289	0.23	0.23	0.0916	0.221	0.154	0.884	0.884	0.962	0.442	0.0884	0.872	0.874	0.895	0.615	0.444	0.192	0.142	0.191	0.113	0.0447
NCI-H23	0.826	0.838	0.825	0.757	0.306	0.556	–	0.595	0.23	0.143	0.508	0.768	0.542	0.215	0.118	0.389	0.382	0.239	0.212	0.141
NCI-H322M	0.257	0.259	–	0.259	0.28	0.642	0.403	0.617	0.4	0.335	0.615	0.622	0.616	0.308	0.273	0.509	0.521	0.506	0.3	0.229
NCI-H358	0.142	0.193	0.218	0.132	0.114	0.163	0.182	0.171	0.104	0.0993	0.163	0.172	0.173	0.128	0.0753	0.103	0.103	0.0892	0.089	0.0711
NCI-H727	0.438	0.287	0.512	0.39	0.348	–	–	–	–	–	–	–	–	–	–	0.568	0.533	0.578	0.407	0.267
NCI-H1563	0.457	0.437	0.453	0.457	0.469	0.885	0.848	0.744	0.809	0.575	0.76	0.861	0.853	0.592	0.396	–	–	–	–	–
NCI-H1623	0.548	0.502	0.499	0.572	0.52	–	–	–	–	–	–	–	–	–	–	0.4	0.441	0.414	0.397	0.342
NCI-H1648	–	–	–	–	–	0.62	0.592	0.753	0.468	0.334	0.689	0.803	0.836	0.745	0.47	0.42	0.543	0.643	0.46	0.215
NCI-H1792	0.867	0.8	–	0.72	0.962	0.656	0.837	0.827	0.4	0.057	0.624	0.888	0.722	0.0892	0.0324	–	–	–	–	–
